Patent US5220001A, “Anthracycline glycoside derivatives” (Zaidan Hojim Biseibutsu Dong-A Pharm Co., priority 1989, dated 1993)
Where a name gives a salt, the structure may show the parent alone. Read-outs that look alike come from different tables or passages of the source.

Legend:
L1210 murine leukemia = experiment: In vivo antitumor activity on DCF1 mice bearing L1210 murine leukemia; conditions: for T/C (%): i.p. days 1, 5, 9, mean survival time vs control, 60-day observation
Protocol: The in vivo antitumor activity of the compounds of present invention was studied on DCF1 mice bearing L1210 murine leukemia. Healthy female DCF1 mice were inoculated by intraperitoneal injection with 1×10^5 L1210 leukemia cells per animal. The inoculated mice were then treated intraperitoneally on the days 1, 5, 9 beginning on day 1, 24 hours after inoculation of the leukemia cells with various doses of test compounds. Doxorubicin hydrochloride was administered for comparison. All test compounds and doxorubicin hydrochloride were dissolved in filtered (0.22 μm) distilled water. […] The results are shown in Table 1 where T/C(%) values are determined by dividing the mean survival time of the treated mice by that of the control mice, the quotient so obtained being multiplied by 100. The survival time of the mice which survived more than 60 days after tumor inoculation was scored as 60 days. An increase on the T/C(%) indicates an increase in the antitumor activity of the compound.

[1] = test system: L1210 murine leukemia cells; experiment: In vitro growth inhibition activity on L1210 murine leukemia cells (tetrazolium-based MTT colorimetric assay); assay type: cell-based; conditions: Mus musculus
Protocol: In vitro growth inhibition activity of the compounds of present invention on L1210 murine leukemia cells was assessed by tetrazolium-based colorimetric assay described in Cancer Research Vol. 47, pp. 936-942, February 1987 with some modifications.
L1210 murine leukemia cells in exponential phase were plated at the density of 1×10^5 cells per well in 96-well microliter plates. The cell culture medium was RPMI 1640 (Roswell Park Memorial Institutes 1640) medium supplemented with 10% heat inactivated fetal bovine serum (FBS), 2mM L-glutamine, penicillin G sodium (100 units per ml of medium), and steptomycin sulfate (1 mg per ml of medium). The anthracycline compounds of present invention and doxorubicin hydrochloride were added to give final concentrations from 1 ng per ml to 300 ng per ml, while the control contained no drug.
The cells were incubated for 72 hours at 37.C. in an atmosphere of 10% CO2 and 90% air. At the end of drug exposure, 50 μl MTT(3-(4,5-dimethylthiazol-2-yl)-2,5-diphenyltetrazolium bromide) solution (2 mg per ml in phosphate-buffered saline) was added to each well and cultures were incubated at 37° C. for 4 hours in Co2 incubator. The MTT is reduced to water insoluble MTT formazan(1-(4,5-dimethylthiazol-2-yl)-3,5-diphenylformazan) by mitochondrial succinate dehydrogenase only in living cells. At the end of incubation, 200 μl of supernatant was removed and the MTT formazan crystal was dissolved by adding 200 μl dimethylsulfoxide with mixing them.
The plates were then read immediately at 540 nm on a scanning multiwell spectrophotometer (enzyme-linked immunosorbent assay reader; Biotech Instruments Inc., Burlington, VT). The absorbance value corrected against uninoculated blank values. The absorbance values are directly proportional to the cell numbers in living state. The IC 50 defined a 50% reduction of absorbance against untreated control were calculated from dose-response curve and are shown in Table 2.

[2] = L1210 cells, 72 hours, MTT, 50% reduction of absorbance against untreated control, read-out: IC50

Row | SMILES | toxicity (decrease in T/C(%) at high dose) (L1210 murine leukemia; 16 mg/kg compared with 8 mg/kg) | T/C (%) (L1210 murine leukemia; dose 0.125 mg/kg) | T/C (%) (L1210 murine leukemia; dose 0.250 mg/kg) | T/C (%) (L1210 murine leukemia; dose 0.500 mg/kg) | T/C (%) (L1210 murine leukemia; dose 1.000 mg/kg) | T/C (%) (L1210 murine leukemia; dose 2.000 mg/kg) | T/C (%) (L1210 murine leukemia; dose 4.000 mg/kg) | T/C (%) (L1210 murine leukemia; dose 8.000 mg/kg) | T/C (%) (L1210 murine leukemia; dose 16.000 mg/kg) | IC50 ([1]; L1210, 72 h) | T/C (%) (L1210 murine leukemia; dose 32.000 mg/kg) | IC50 [1, 2] | cure of tumored mice (L1210 murine leukemia; at 32 mg/kg, 16 mg/kg and 8 mg/kg i.p.)
1 | COc1cccc2c1C(=O)c1c(O)c3c(c(O)c1C2=O)C[C@@](O)(C(=O)CO)C[C@@H]3O[C@H]1C[C@H](N)[C@H](O)[C@H](C)O1 [Doxorubicin hydrochloride, reference compound] | significant decrease in T/C(%) | 141% | 170% | 218% | 242% | 242% | 469% | 303% | 109% | 0.0373 µg/mL |  |  | 
2 | COc1cccc2c1C(=O)c1c(O)c3c(c(O)c1C2=O)CC(O)(C(=O)COC(=O)C(N)C(C)C)CC3OC1OC(C)C(O)C(O)C1F [Example 11, 7-0-(2,6-dideoxy-2-fluoro-α-L-talopyranosyl)adriamycinone 14-0-L-valinate HCl salt] |  | 150% | 168% | 226% | 298% | 492% | 559% | 586% | 727% |  | 252% | 0.0155 µg/mL | 
3 | COc1cccc2c1C(=O)c1c(O)c3c(c(O)c1C2=O)CC(O)(C(=O)COC(=O)CCN)CC3OC1OC(C)C(O)C(O)C1F [Example 5, 7-0-(2,6-dideoxy-2-fluoro-α-L-talopyranosyl)adriamycinone 14-0-β-alaninate HCl salt] |  | 140% | 162% | 189% | 248% | 361% | 333% | 500% | 636% |  | 542% | 0.0101 µg/mL | 
4 | COc1cccc2c1C(=O)c1c(O)c3c(c(O)c1C2=O)CC(O)(C(=O)COC(=O)C(C)N)CC3OC1OC(C)C(O)C(O)C1F [Example 9, 7-0-(2,6-dideoxy-2-fluoro-α-L-talopyranosyl)adriamycinone 14-0-L-alaninate HCl salt] |  | 171% | 190% | 244% | 287% | 356% | 468% | 488% | 660% |  | 727% | 0.0143 µg/mL | 
5 | COc1cccc2c1C(=O)c1c(O)c3c(c(O)c1C2=O)CC(O)(C(=O)COC(=O)CCCCCN)CC3OC1OC(C)C(O)C(O)C1F [Example 7, 7-0-(2,6-dideoxy-2 fluoro-α-L-talopyranosyl)adriamycinone 14-0-(6-aminohexanoate) HCl salt] |  | 111% | 122% | 168% | 242% | 329% | 348% | 367% | 441% | 0.0745 µg/mL | 663% |  | 
6 | COc1cccc2c1C(=O)c1c(O)c3c(c(O)c1C2=O)CC(O)(C(=O)COC(=O)C1CCCN1)CC3OC1OC(C)C(O)C(O)C1F [Example 13, 7-0-(2,6-dideoxy-2-fluoro-α-L-talopyranosyl)adriamycinone 14-0-L-prolinate HCl salt] |  | 140% | 159% | 213% | 313% | 367% | 283% | 427% | 635% |  | 525% | 0.0163 µg/mL | 
7 | COc1cccc2c1C(=O)c1c(O)c3c(c(O)c1C2=O)CC(O)(C(=O)COC(=O)CN)CC3OC1OC(C)C(O)C(O)C1F [Example 3, 7-0-(2,6-dideoxy-2-fluoro-α-L-talopyranosyl)adriamycinone 14-0-glycinate HCl salt] |  | 186% | 238% | 328% | 230% | 255% | 279% | 727% | 727% |  | 727% | 0.0134 µg/mL | cured all tumored mice
